Measurements: EPA's ToxRefDB 2

Tests used:
rat [1] = conditions: Sub-acute repeat dose toxicity, sprague dawley, Oral, Gavage/Intubation, dose end: 28 day, group: systemic
rat [2] = conditions: Multigenerational reproductive toxicity study, sprague dawley, Oral, Gavage/Intubation, dose end: 1 generation
mouse [3] = conditions: Combined chronic toxicity/carcinogenicity, b6c3f1, Oral, Feed, dose end: 2 year
rat [4] = conditions: Multigenerational reproductive toxicity study, sprague dawley, Oral, Feed, dose end: 2 generation
mouse [5] = conditions: Subchronic oral toxicity in rodents, cd1, Feed, dose end: 3 month, group: systemic
dog [6] = conditions: Subchronic oral toxicity in nonrodent, beagle, Feed, dose end: 13 week
rat [7] = conditions: Combined chronic toxicity/carcinogenicity, sprague dawley, Oral, Feed, dose end: 28 month
rat [8] = conditions: Prenatal developmental toxicity study, wistar, Oral, Gavage/Intubation, dose end: 15 GD
rat [9] = conditions: Subchronic oral toxicity in rodents, sprague dawley, Feed, dose end: 3 month
dog [10] = conditions: Chronic toxicity, beagle, Oral, Feed, dose end: 12 month
dog [11] = conditions: Subchronic oral toxicity in nonrodent, beagle, Feed, dose end: 90 day
[12] = systemic / organ weight / liver / relative to body weight + systemic / clinical chemistry / bilirubin / total bilirubin + systemic / in life…
[13] = group: offspring, systemic / in life observation / body weight / offspring (pup) weight
[14] = group: parental, systemic / organ weight / heart / relative to body weight + systemic / organ weight / kidney / relative to body weight + systemic / organ …
[15] = group: reproductive, reproductive / offspring survival early / birth index / live birth index
[16] = group: cholinesterase, cholinesterase / cholinesterase / cholinesterase / brain cholinesterase (che) + cholinesterase / cholinesterase / cholinesterase / …
[17] = group: systemic, systemic / clinical chemistry / cholesterol / cholesterol
[18] = group: systemic, systemic / clinical chemistry / cholesterol / cholesterol + systemic / in life observation / body weight / body weight + systemic / in life …
[19] = group: offspring, developmental / offspring survival late / viability index / viability index
[20] = group: parental, systemic / in life observation / body weight / body weight gain
[21] = systemic / in life observation / body weight / body weight + systemic / organ weight / brain / relative to body weight + systemic / organ …
[22] = group: cholinesterase, cholinesterase / cholinesterase / cholinesterase / plasma cholinesterase (che) + cholinesterase / cholinesterase / cholinesterase / …
[23] = group: systemic, systemic / in life observation / body weight / body weight gain + systemic / in life observation / clinical signs / emaciation + systemic / …
[24] = group: cholinesterase, cholinesterase / cholinesterase / cholinesterase / erythrocyte cholinesterase (che)
[25] = group: systemic, systemic / hematology / erythrocyte (rbc) count differential / erythrocyte (rbc) + systemic / hematology / hematocrit (hct) / hematocrit (…
[26] = group: developmental, systemic / in life observation / body weight / fetal weight + developmental / developmental malformation / bone / delayed ossification + …
[27] = group: maternal, reproductive / reproductive performance / postimplantation loss / postimplantation loss + reproductive / reproductive performance / …
[28] = group: cholinesterase, cholinesterase / cholinesterase / cholinesterase / erythrocyte cholinesterase (che) + cholinesterase / cholinesterase / cholinesterase / …
[29] = group: systemic, systemic / clinical chemistry / albumin-globulin ratio / albumin-globulin ratio
[30] = group: systemic, systemic / hematology / hemoglobin (hgb) / hemoglobin (hgb) + systemic / pathology microscopic / stomach / acanthosis + systemic / pathology…
[31] = group: systemic, systemic / organ weight / liver / absolute
[32] = group: systemic, systemic / in life observation / clinical signs / pulse/pressure

O=[N+]([O-])c1ccc(O)c([N+](=O)[O-])c1 [2,4-Dinitrophenol]
LEL (rat [1]; systemic / clinical chemistry / bilirubin / total bilirubin): 10 mg/kg/day
NEL (rat [1]; systemic / clinical chemistry / bilirubin / total bilirubin + systemic / in life observation / clinical signs / [other] + systemic / in life…): 3 mg/kg/day
LOAEL (rat [1]; [12]): > 80 mg/kg/day
NOAEL (rat [1]; [12]): ≥ 80 mg/kg/day
LEL (rat [2]; [13]): 30 mg/kg/day
LOAEL (rat [2]; [13]): > 30 mg/kg/day
NEL (rat [2]; [13]): 10 mg/kg/day
NOAEL (rat [2]; [13]): ≥ 30 mg/kg/day
LEL (rat [2]; [14]): 30 mg/kg/day
LOAEL (rat [2]; [14]): > 30 mg/kg/day
NEL (rat [2]; [14]): 10 mg/kg/day
NOAEL (rat [2]; [14]): ≥ 30 mg/kg/day
LEL (rat [2]; [15]): 30 mg/kg/day
LOAEL (rat [2]; [15]): > 30 mg/kg/day
NEL (rat [2]; [15]): 10 mg/kg/day
NOAEL (rat [2]; [15]): ≥ 30 mg/kg/day

COP(=S)(OC)Oc1ccc([N+](=O)[O-])cc1 [Methyl parathion]
LEL (mouse [3]; [16]): 1.6 mg/kg/day
LOAEL (mouse [3]; [16]): 1.6 mg/kg/day
NEL (mouse [3]; [16]): 0.2 mg/kg/day
NOAEL (mouse [3]; [16]): 0.2 mg/kg/day
LEL (mouse [3]; [17]): 2.1 mg/kg/day
LOAEL (mouse [3]; [17]): 2.1 mg/kg/day
NEL (mouse [3]; [18]): 0.3 mg/kg/day
NOAEL (mouse [3]; [18]): 0.3 mg/kg/day
LEL (rat [4]; [19]): 2 mg/kg/day
LOAEL (rat [4]; [19]): 2 mg/kg/day
NEL (rat [4]; [19]): 0.38 mg/kg/day
NOAEL (rat [4]; [19]): 0.38 mg/kg/day
LOAEL (rat [4]; [20]): 2.3 mg/kg/day
NEL (rat [4]; [20]): 0.44 mg/kg/day
NOAEL (rat [4]; [20]): 0.44 mg/kg/day
LEL (rat [4]; group: parental, systemic / in life observation / body weight / body weight gain + systemic / in life observation / body weight / body weight): 2.3 mg/kg/day
LOAEL (mouse [5]; systemic / in life observation / body weight / body weight): 13.5 mg/kg/day
LEL (mouse [5]; [21]): 13.5 mg/kg/day
NEL (mouse [5]; [21]): 6.5 mg/kg/day
NOAEL (mouse [5]; [21]): 6.5 mg/kg/day
LEL (dog [6]; [22]): 3 mg/kg/day
LOAEL (dog [6]; [22]): 3 mg/kg/day
NEL (dog [6]; [22]): 0.3 mg/kg/day
NOAEL (dog [6]; [22]): 0.3 mg/kg/day
LOAEL (dog [6]; group: systemic, systemic / in life observation / body weight / body weight gain): 3 mg/kg/day
LEL (dog [6]; [23]): 3 mg/kg/day
NOAEL (dog [6]; [23]): 0.3 mg/kg/day
NEL (dog [6]; group: systemic, systemic / in life observation / clinical signs / emaciation + systemic / in life observation / clinical signs / dehydration + systemic / in…): 0.3 mg/kg/day
LOAEL (rat [7]; [16]): > 2.21 mg/kg/day
NEL (rat [7]; [16]): 0.02 mg/kg/day
NOAEL (rat [7]; [16]): ≥ 2.21 mg/kg/day
LEL (rat [7]; [24]): 0.21 mg/kg/day
LEL (rat [7]; [25]): 0.21 mg/kg/day
LOAEL (rat [7]; [25]): 0.21 mg/kg/day
NEL (rat [7]; [25]): 0.02 mg/kg/day
NOAEL (rat [7]; [25]): 0.02 mg/kg/day
LEL (rat [8]; [16]): 3 mg/kg/day
LOAEL (rat [8]; [16]): > 3 mg/kg/day
NOAEL (rat [8]; [16]): ≥ 3 mg/kg/day
LOAEL (rat [8]; group: developmental, systemic / in life observation / body weight / fetal weight): 3 mg/kg/day
LEL (rat [8]; [26]): 3 mg/kg/day
NEL (rat [8]; [26]): 1 mg/kg/day
NOAEL (rat [8]; [26]): 1 mg/kg/day
LEL (rat [8]; [27]): 3 mg/kg/day
LOAEL (rat [8]; [27]): 3 mg/kg/day
NEL (rat [8]; [27]): 1 mg/kg/day
NOAEL (rat [8]; [27]): 1 mg/kg/day
LEL (rat [9]; [24]): 1.24 mg/kg/day
LOAEL (rat [9]; [24]): 1.24 mg/kg/day
NEL (rat [9]; [28]): 0.12 mg/kg/day
NOAEL (rat [9]; [28]): 0.12 mg/kg/day
LEL (rat [9]; [29]): 0.16 mg/kg/day
NEL (rat [9]; [29]): < 0.16 mg/kg/day
LOAEL (rat [9]; [30]): 1.24 mg/kg/day
NOAEL (rat [9]; [30]): 0.12 mg/kg/day
LEL (dog [10]; [28]): 0.03 mg/kg/day
LOAEL (dog [10]; [28]): 0.03 mg/kg/day
NEL (dog [10]; [28]): < 0.03 mg/kg/day
NOAEL (dog [10]; [28]): < 0.03 mg/kg/day
LEL (dog [10]; [31]): 0.3 mg/kg/day
LOAEL (dog [10]; [31]): > 0.3 mg/kg/day
NEL (dog [10]; [31]): 0.1 mg/kg/day
NOAEL (dog [10]; [31]): ≥ 0.3 mg/kg/day
LEL (dog [11]; [28]): 1 mg/kg/day
LOAEL (dog [11]; [28]): 1 mg/kg/day
NEL (dog [11]; [28]): 0.3 mg/kg/day
NOAEL (dog [11]; [28]): 0.3 mg/kg/day
LEL (dog [11]; [32]): 3 mg/kg/day
LOAEL (dog [11]; [32]): 3 mg/kg/day
NEL (dog [11]; [32]): 1 mg/kg/day
NOAEL (dog [11]; [32]): 1 mg/kg/day
